# Source: patent US20080255090A1, “Ceratamines A and B, and Analogues, Syntheses and Pharmaceutical Compositions Thereof” (THE UNIVERSITY OF BRITISH COLUMBIA, priority 2003, published 2008)
# System: mitotic arrest
# Assay: cell-based ELICA assay that detects mitotic arrest (Roberge et al. 2000)
# Conditions: cell-based ELICA assay of Roberge et al. (2000) Cancer Res. 60:5052
# Text: As part of a program to discover new antimitotic natural products, extracts of marine invertebrates are screened in a cell-based assay that detects mitotic arrest (Roberge, M. et al. (2000) Cancer Res. 60:5052). […] The compounds described below, their salts, prodrugs and pharmaceutical compositions thereof are all contemplated within the scope of this invention.
# Methods suitable for assaying antimitotic activity of compounds of this invention or compounds used as precursors, may be based on any of a variety of known methodologies including microscopic examination of cells to determine if they are arrested in mitosis. Particularly useful methods employ antibodies specific for mitotic cells, such as the method described in the international patent application published under WO 99/15157 or the assays described in WO 01/38339 and in Roberge et al. (2000) Cancer Res. 60:5052. Assays will typically employ cells which regularly divide in culture (e.g. cancer cells). […]
# Immunological methods useful for determination of mitotic cells in an assay include any method for determining antibody-antigen binding, including: immunocytochemistry (e.g. immunofluorescence), flow cytometry, immunoblotting, and ELISA, including those described in Vincent, I. et al. [supra]. High throughput testing of samples may be readily achieved by use of the ELISA or the ELICA assays described in WO 01/38339. […]
Compound,"IC50 (read-out: IC50, antimitotic activity in the cell-based ELICA assay) [µg/mL]","IC50, antimitotic activity in the cell-based ELICA assay [µg/mL]"
"CNc1nc2ccn(C)c(=O)c(Cc3cc(Br)c(OC)c(Br)c3)c-2n1 [Heterocycle 1, ceratamine A]",10,–
ceratamine B [Heterocycle 2],–,10
